Source: a melting point compilation (Tetko et al.; mined from patent text by program, amines drawn as free bases though some values may be those of a salt)

First: Nc1ccc(CCn2cccn2)cc1
Second: N#Cc1ccc(Nn2ccnc2)cc1
The melting point of the first is lower: 73 to 74 °C for the first, 162 °C for the second.

`O=[N+]([O-])c1nccn1COC(CO)CO` and `CCOc1ccc([N+](=O)[O-])cn1` cannot be ordered by melting point: 88 °C for the first, 85 to 88 °C for the second.

First: CC(C)CN(C)c1cc2c(cc1C#N)NC(=O)CC(c1cccc(-n3nncc3CN3CCCC3)c1)=N2
Second: COc1c(-c2ccc(C=NNS(C)(=O)=O)cc2)cc(N2CCC(=O)NC2=O)cc1C(C)(C)C
The melting point of the first is lower: 174 °C for the first, 209 to 211 °C for the second.

Compared with `CC(C)(C)c1ccc(C(=O)Nc2cn3nc(-n4cnc(CO)c4)ccc3n2)cc1`, `CCCc1nc(CO)c(C(=O)OCC)n1Cc1ccc(-c2ccccc2C(=O)OC(C)(C)C)cc1` is lower in melting point: 298 to 301 °C for the first, 108 to 110 °C for the second.

First: COC(=O)CCCCc1ccc(CCNC(C)=O)cc1
Second: COC(=O)c1ccc(C(=O)CCCOC(C)=O)cc1
The melting point of the first is lower: 57 to 59 °C for the first, 61 to 62 °C for the second.

First: O=S(=O)(NN1CCCCC1)c1ccc(S)cc1
Second: CC(=O)Nc1ccc(S(=O)(=O)N(CCCl)CCCl)cc1
The melting point of the first is lower: 93 °C for the first, 113 to 114 °C for the second.

First: O=c1[nH]c2ccccc2n1CCN1CCC(Cc2c[nH]c3ccc(F)cc23)CC1
Second: Cn1cc([C@H]2CC[C@@H](N3CCN(c4cc(Br)cc5cccnc45)CC3)CC2)c2cc(F)ccc21
The melting point of the first is higher: 220 °C for the first, 215 to 217 °C for the second.

Compared with `CCOc1ccccc1-c1ncc(C#N)c(=O)[nH]1`, `C#CCOc1cc(Oc2ccccc2C)ncn1` is lower in melting point: 186 to 187 °C for the first, 64.8 °C for the second.

First: O=C1CC(c2ccc(-c3ccc(OCc4ccc(Br)cc4)cc3)cc2)Cc2ccccc21 (stereo not given)
Second: NS(=O)(=O)c1ccc(-c2c(-c3ccccc3)noc2COc2ccc(C(=O)O)cc2)cc1
The melting point of the first is lower: 191 °C for the first, 206 to 208 °C for the second.

First: CNC(=O)N/N=C1/C(=O)N(CCN(C(C)C)C(C)C)c2ccc(C)cc21
Second: CNS(=O)(=O)C1CN(C)c2cc(F)ccc2C1=O (stereo not given)
The melting point of the first is higher: 158 °C for the first, 134 to 136 °C for the second.

Compared with `Fc1cccc(F)c1-c1nnc(-c2c(F)cccc2F)nn1`, `Cc1c(Cc2cccc(C(F)(F)F)c2)oc2cccc(O)c12` is lower in melting point: 214 °C for the first, 91 to 92 °C for the second.

First: Cc1nn(-c2c(Cl)cc(C(F)(F)F)cc2Cl)nc1COS(C)(=O)=O
Second: Cc1c(C(=O)O)cnn1-c1c(Cl)cc(C(F)(F)F)cc1Cl
The melting point of the first is lower: 126 to 128 °C for the first, 187 to 189 °C for the second.

First: COc1nc(C)c(C)nc1NC(=O)N1CCN(c2cc(F)cc(F)c2)CC1
Second: COc1cc2c(cc1Nc1ncc(Cl)c(N[C@H]3[C@@H](C(N)=O)[C@@H]4C=C[C@H]3C4)n1)CCN(Cc1ncco1)CC2
The melting point of the first is higher: 153 to 154 °C for the first, 110 to 119 °C for the second.

First: COC(=N)COc1ccc(OC)cc1
Second: COC(=O)COc1ccc(C(O)CNCc2ccc(C(=O)OC)cc2)cc1 (stereo not given)
The melting point of the first is lower: 95 to 96 °C for the first, 97 to 100 °C for the second.

Compared with `COC(=O)C(C)(C)OCc1cc2cc(C(F)(F)F)ccc2n1S(=O)(=O)c1cc(OC)ccc1OC`, `COc1ccc(S(=O)(=O)N(Cc2ccccc2)[C@H](CC(C)C)C(=O)NO)cc1` is lower in melting point: 130 to 132 °C for the first, 48 to 52 °C for the second.

Compared with `O=C(O)Cc1cc2c(c([N+](=O)[O-])c1)NC(C(F)(F)F)CC2` (stereo not given), `C[C@H]1N=C(c2ccccc2F)c2cc([N+](=O)[O-])ccc2NC1=O` is lower in melting point: 177 to 178 °C for the first, 120 °C for the second.

First: Cc1c(C)c2c(c(C)c1OCc1ccccc1)C(CN1CCCC1CO)C(C)(C)O2 (mixture of isomers)
Second: CCOC(=O)c1sc2cc(OCc3ccccc3)ccc2c1S(=O)c1ccccc1 (stereo not given)
The melting point of the first is lower: 99 to 101 °C for the first, 141 to 142 °C for the second.

`CC1=CC=CC(O)(C(=N)N)C1C` (stereo not given) and `CC(C)C(NC(=O)OCc1ccccc1)P(O)O` (stereo not given) cannot be ordered by melting point: 110 to 111 °C for the first, 108 to 111 °C for the second.

Compared with `Nc1nc(N)c(-c2cc(Cl)cc(Cl)c2Cl)nc1Br`, `CCc1[nH]n(C2CCCC2)c2nc(-c3cc(C)nc(Cl)c3)nc(=O)c1-2` is higher in melting point: 222 to 224 °C for the first, 277 to 278 °C for the second.

Compared with `COc1cc(COc2nn(-c3ccccc3)cc2CC2SC(=O)N(C)C2=O)ccc1OCc1nc(-c2ccco2)oc1C` (stereo not given), `COC(=O)c1c(Cc2ccc(S(=O)(=O)NCCO)cc2)c(=O)c2ccc(Cl)cc2n1-c1ccccc1` is higher in melting point: 111 to 112 °C for the first, 192 to 193 °C for the second.

First: COC(=O)CCC/C=C(/c1cc(C)c2onc(OC)c2c1)c1cc(C)c2oc(=O)n(C)c2c1
Second: Cc1cc(NC(=O)c2[nH]c(C)c(-c3nc4ccc(C(=O)c5ccccc5)cc4[nH]3)c2C)no1
The melting point of the first is lower: 54 to 55 °C for the first, 271 to 273 °C for the second.

First: COC1CCC(OS(C)(=O)=O)C(CN=[N+]=[N-])O1 (stereo not given)
Second: O=C1CN(CCC(O)C2CCCCC2)C(=O)N1 (stereo not given)
The melting point of the first is lower: 54 to 56 °C for the first, 97 to 99 °C for the second.

First: C#CCOc1ccc2nc(N)c3nc4n(c3c2c1)C(C)COC4 (stereo not given)
Second: COc1ccc(N2CCOCC2)c2sc(C(=O)NCC(=O)c3ccccc3)nc12
The melting point of the first is higher: 184 to 186 °C for the first, 165 °C for the second.

First: CC(=O)N(O)C(C)c1ccc2c(c1)Cc1ccccc1-2 (stereo not given)
Second: CCN(CC)CCNC(=O)c1c(I)ccc2cc3ccccc3nc12
The melting point of the first is higher: 168 to 171 °C for the first, 81 to 83 °C for the second.

First: N#Cc1ccc(OCc2cccnc2)cc1F
Second: NS(=O)(=O)c1nc2ccc(OC(=O)C=Cc3ccccc3)cc2s1
The melting point of the first is lower: 105 to 110 °C for the first, 235 °C for the second.

First: CC(=O)OCCn1cc(-c2ccccc2)[nH]c1=O
Second: O=c1cc(O)cc(-c2cccc(Cl)c2)o1
The melting point of the first is lower: 86 to 88 °C for the first, 254 to 256 °C for the second.

First: O=C(c1cccs1)c1cnn2c(-c3cccc(-c4ccc(CNCCN5CCOCC5)cc4)c3)ccnc12
Second: Oc1cccc(-c2ccccc2-c2nc(-c3ccccc3)c(-c3ccccc3)o2)c1
The melting point of the first is lower: 100 to 106 °C for the first, 125 to 128 °C for the second.

First: CC(C)CC(NC(=O)OCc1ccccc1)C(=O)NC(C(=O)Nc1n[nH]c(=S)s1)C(C)C (stereo not given)
Second: COc1ccc(SSc2ccc(OC)cc2C(=O)NC(CC(C)C)C(=O)O)c(C(=O)NC(CC(C)C)C(=O)O)c1 (stereo not given)
The melting point of the first is lower: 146 °C for the first, 168 to 169 °C for the second.

First: CC(=O)SCCC(=O)N1CCC=C1C(=O)O
Second: O=C(NCC(=O)OCCC(F)=C(F)F)Nc1ccc(Cl)cc1Cl
The melting point of the first is lower: 89 to 91 °C for the first, 120 °C for the second.

First: COc1c2c(c(OC)c(OC)c1OC)CCC(CCOc1ccc(Cl)cc1)CC2
Second: Oc1ccc2c(c1)CCCC(c1ccccc1)=C2c1ccc(OCCCCCCSCCCC(F)(F)C(F)(F)F)cc1
The melting point of the first is lower: 98 to 102 °C for the first, 166 °C for the second.

First: COCC(=O)N[C@H]1CC[C@H](Nc2nccc(-n3nnc4ccccc43)n2)CC1
Second: O=C(CN1c2ccccc2Cn2c1nc(-c1ccncn1)cc2=O)c1ccccc1
The melting point of the first is lower: 234 to 235 °C for the first, 263 to 265 °C for the second.

First: O=C[C@H](OCc1ccccc1)[C@@H](OCc1ccccc1)[C@H](OCc1ccccc1)[C@H](O)COCc1ccccc1
Second: CCCc1nc(C(O)C(C)(C)C)c(C#N)n1Cc1ccc(-c2ccccc2-c2nnnn2C(c2ccccc2)(c2ccccc2)c2ccccc2)cc1 (stereo not given)
The melting point of the first is higher: 151 °C for the first, 115 to 117 °C for the second.

First: Cn1cc(C2=C(c3c4n(c5ccccc35)CCN(C(=O)CNC(=O)C(F)(F)F)C4)C(=O)NC2=O)c2ccccc21
Second: Cc1ccc(N2CCN(c3cccc(Cl)c3)C2C(Cl)(Cl)Cl)cc1 (stereo not given)
The melting point of the first is higher: 170 to 172 °C for the first, 34 to 36 °C for the second.

First: CCCCCCCCCCCCCCCc1cccc(OCC(=O)O)c1
Second: COC(=O)CNc1cccc(CF)c1
The melting point of the first is higher: 96 °C for the first, 47 to 47.5 °C for the second.

First: CCOCCNc1nc(Cl)nc(N[C@@H](C)c2ccccc2)n1
Second: CCC(COC)n1cc(Cl)nc(N2CCc3cc(OC)c(F)c(Cl)c32)c1=O (stereo not given)
The melting point of the first is lower: 103 °C for the first, 140 to 142 °C for the second.
